{"source": "patent US6677466B1", "about": "“Method for stabilizing hydrogen peroxide” (DSM Fine Chemicals Austria NFG GmbH & Co KG, priority 1999, dated 2004)", "experiment": "O2 evolution from [Mn2O3{Me3tacn}2](PF6)2-catalysed decomposition of H2O2 with stabilizer", "type": "physicochemical", "description": "A 50% strength aqueous solution of H2O2 (304 mg; 4.46 mmol) was added to 454 mg (4.46 mmol) of methyl pyruvate and to 535 mg (4.46 mmol) of glyoxylic methyl ester methyl hemiacetal, respectively. In the case of methyl pyruvate, a marked evolution of heat was discovered during the addition. After one hour, the H2O2/α-keto ester mixture was mixed with 1 ml of solvent and added to a suspension of 1.0 mg of [Mn2O3{Me3tacn}2](PF6)2 catalyst in 4 ml of solvent. The suspension was introduced into a 50 ml flask which was maintained at room temperature in a water bath. As a result of this addition, in cases where undissolved catalyst was still present, the catalyst dissolved completely.\nAs a comparison, a suspension of 1.0 mg of [Mn2O3{Me3tacn}2](PF6)2 catalyst in 4 ml of solvent was combined with a 50% strength aqueous solution of H2O2 (304 mg; 4.46 mmol) and 1 ml of solvent without stabilizer.\nThe amount of oxygen which was evolved from the decomposition of the hydrogen peroxide was determined as a function of time using a Brooks meter, which permitted measurement of the gas flow and the total amount of evolved gas.", "data": [{"compound": "COC(=O)C(C)=O", "note": "[methyl pyruvate]", "values": [{"measurement": "O2 evolution V(O2) (Vmax(O2)*100%)", "setting": "solv. acetic acid, t 1 min", "result": 0, "unit": "%"}, {"measurement": "O2 evolution V(O2) (Vmax(O2)*100%)", "setting": "solv. acetic acid, t 4 min", "result": 3, "unit": "%"}, {"measurement": "O2 evolution V(O2) (Vmax(O2)*100%)", "setting": "solv. acetic acid, t 5 min", "result": 8, "unit": "%"}, {"measurement": "O2 evolution V(O2) (Vmax(O2)*100%)", "setting": "solv. acetic acid, t 10 min", "result": 20, "unit": "%"}, {"measurement": "O2 evolution V(O2) (Vmax(O2)*100%)", "setting": "solv. acetic acid, t 15 min", "result": 24, "unit": "%"}, {"measurement": "O2 evolution V(O2) (Vmax(O2)*100%)", "setting": "solv. acetic acid, t 20 min", "result": 24, "unit": "%"}, {"measurement": "O2 evolution V(O2) (Vmax(O2)*100%)", "setting": "solv. acetic acid, t 25 min", "result": 24, "unit": "%"}, {"measurement": "O2 evolution V(O2) (Vmax(O2)*100%)", "setting": "solv. acetic acid, t 30 min", "result": 24, "unit": "%"}, {"measurement": "O2 evolution V(O2) (Vmax(O2)*100%)", "setting": "solv. acetic acid, t 35 min", "result": 24, "unit": "%"}, {"measurement": "O2 evolution V(O2) (Vmax(O2)*100%)", "setting": "solv. acetic acid, t 50 min", "result": 24, "unit": "%"}, {"measurement": "O2 evolution V(O2) (Vmax(O2)*100%)", "setting": "solv. acetic acid, t 60 min", "result": 24, "unit": "%"}, {"measurement": "O2 evolution V(O2) (Vmax(O2)*100%)", "setting": "solv. acetic acid, t 70 min", "result": 24, "unit": "%"}, {"measurement": "O2 evolution V(O2) (Vmax(O2)*100%)", "setting": "solv. acetic acid, t 80 min", "result": 24, "unit": "%"}, {"measurement": "O2 evolution V(O2) (Vmax(O2)*100%)", "setting": "solv. acetone, t 1 min", "result": 0, "unit": "%"}, {"measurement": "O2 evolution V(O2) (Vmax(O2)*100%)", "setting": "solv. acetone, t 4 min", "result": 0, "unit": "%"}, {"measurement": "O2 evolution V(O2) (Vmax(O2)*100%)", "setting": "solv. acetone, t 5 min", "result": 0, "unit": "%"}, {"measurement": "O2 evolution V(O2) (Vmax(O2)*100%)", "setting": "solv. acetone, t 10 min", "result": 0, "unit": "%"}, {"measurement": "O2 evolution V(O2) (Vmax(O2)*100%)", "setting": "solv. acetone, t 15 min", "result": 0, "unit": "%"}, {"measurement": "O2 evolution V(O2) (Vmax(O2)*100%)", "setting": "solv. acetone, t 20 min", "result": 0, "unit": "%"}, {"measurement": "O2 evolution V(O2) (Vmax(O2)*100%)", "setting": "solv. acetone, t 25 min", "result": 0, "unit": "%"}, {"measurement": "O2 evolution V(O2) (Vmax(O2)*100%)", "setting": "solv. acetone, t 30 min", "result": 0, "unit": "%"}, {"measurement": "O2 evolution V(O2) (Vmax(O2)*100%)", "setting": "solv. acetone, t 35 min", "result": 0, "unit": "%"}, {"measurement": "O2 evolution V(O2) (Vmax(O2)*100%)", "setting": "solv. acetone, t 50 min", "result": 6, "unit": "%"}, {"measurement": "O2 evolution V(O2) (Vmax(O2)*100%)", "setting": "solv. acetone, t 60 min", "result": 12, "unit": "%"}, {"measurement": "O2 evolution V(O2) (Vmax(O2)*100%)", "setting": "solv. acetone, t 70 min", "result": 20, "unit": "%"}, {"measurement": "O2 evolution V(O2) (Vmax(O2)*100%)", "setting": "solv. acetone, t 80 min", "result": 28, "unit": "%"}, {"measurement": "O2 evolution V(O2) (Vmax(O2)*100%)", "setting": "solv. acetonitrile, t 1 min", "result": 0, "unit": "%"}, {"measurement": "O2 evolution V(O2) (Vmax(O2)*100%)", "setting": "solv. acetonitrile, t 4 min", "result": 0, "unit": "%"}, {"measurement": "O2 evolution V(O2) (Vmax(O2)*100%)", "setting": "solv. acetonitrile, t 5 min", "result": 0, "unit": "%"}, {"measurement": "O2 evolution V(O2) (Vmax(O2)*100%)", "setting": "solv. acetonitrile, t 10 min", "result": 3, "unit": "%"}, {"measurement": "O2 evolution V(O2) (Vmax(O2)*100%)", "setting": "solv. acetonitrile, t 15 min", "result": 9, "unit": "%"}, {"measurement": "O2 evolution V(O2) (Vmax(O2)*100%)", "setting": "solv. acetonitrile, t 20 min", "result": 18, "unit": "%"}, {"measurement": "O2 evolution V(O2) (Vmax(O2)*100%)", "setting": "solv. acetonitrile, t 25 min", "result": 25, "unit": "%"}, {"measurement": "O2 evolution V(O2) (Vmax(O2)*100%)", "setting": "solv. acetonitrile, t 30 min", "result": 30, "unit": "%"}, {"measurement": "O2 evolution V(O2) (Vmax(O2)*100%)", "setting": "solv. acetonitrile, t 35 min", "result": 35, "unit": "%"}, {"measurement": "O2 evolution V(O2) (Vmax(O2)*100%)", "setting": "solv. acetonitrile, t 50 min", "result": 38, "unit": "%"}, {"measurement": "O2 evolution V(O2) (Vmax(O2)*100%)", "setting": "solv. acetonitrile, t 60 min", "result": 38, "unit": "%"}, {"measurement": "O2 evolution V(O2) (Vmax(O2)*100%)", "setting": "solv. acetonitrile, t 70 min", "result": 38, "unit": "%"}, {"measurement": "O2 evolution V(O2) (Vmax(O2)*100%)", "setting": "solv. acetonitrile, t 80 min", "result": 38, "unit": "%"}, {"measurement": "O2 evolution V(O2) (Vmax(O2)*100%)", "setting": "solv. ethyl acetate, t 1 min", "result": 0, "unit": "%"}, {"measurement": "O2 evolution V(O2) (Vmax(O2)*100%)", "setting": "solv. ethyl acetate, t 4 min", "result": 0, "unit": "%"}, {"measurement": "O2 evolution V(O2) (Vmax(O2)*100%)", "setting": "solv. ethyl acetate, t 5 min", "result": 0, "unit": "%"}, {"measurement": "O2 evolution V(O2) (Vmax(O2)*100%)", "setting": "solv. ethyl acetate, t 10 min", "result": 6, "unit": "%"}, {"measurement": "O2 evolution V(O2) (Vmax(O2)*100%)", "setting": "solv. ethyl acetate, t 15 min", "result": 9, "unit": "%"}, {"measurement": "O2 evolution V(O2) (Vmax(O2)*100%)", "setting": "solv. ethyl acetate, t 20 min", "result": 9, "unit": "%"}, {"measurement": "O2 evolution V(O2) (Vmax(O2)*100%)", "setting": "solv. ethyl acetate, t 25 min", "result": 9, "unit": "%"}, {"measurement": "O2 evolution V(O2) (Vmax(O2)*100%)", "setting": "solv. ethyl acetate, t 30 min", "result": 9, "unit": "%"}, {"measurement": "O2 evolution V(O2) (Vmax(O2)*100%)", "setting": "solv. ethyl acetate, t 35 min", "result": 9, "unit": "%"}, {"measurement": "O2 evolution V(O2) (Vmax(O2)*100%)", "setting": "solv. ethyl acetate, t 50 min", "result": 9, "unit": "%"}, {"measurement": "O2 evolution V(O2) (Vmax(O2)*100%)", "setting": "solv. ethyl acetate, t 60 min", "result": 9, "unit": "%"}, {"measurement": "O2 evolution V(O2) (Vmax(O2)*100%)", "setting": "solv. ethyl acetate, t 70 min", "result": 9, "unit": "%"}, {"measurement": "O2 evolution V(O2) (Vmax(O2)*100%)", "setting": "solv. ethyl acetate, t 80 min", "result": 9, "unit": "%"}, {"measurement": "O2 evolution V(O2) (Vmax(O2)*100%)", "setting": "solv. methanol, t 1 min", "result": 1, "unit": "%"}, {"measurement": "O2 evolution V(O2) (Vmax(O2)*100%)", "setting": "solv. methanol, t 4 min", "result": 2, "unit": "%"}, {"measurement": "O2 evolution V(O2) (Vmax(O2)*100%)", "setting": "solv. methanol, t 5 min", "result": 2, "unit": "%"}, {"measurement": "O2 evolution V(O2) (Vmax(O2)*100%)", "setting": "solv. methanol, t 10 min", "result": 2, "unit": "%"}, {"measurement": "O2 evolution V(O2) (Vmax(O2)*100%)", "setting": "solv. methanol, t 15 min", "result": 2, "unit": "%"}, {"measurement": "O2 evolution V(O2) (Vmax(O2)*100%)", "setting": "solv. methanol, t 20 min", "result": 2, "unit": "%"}, {"measurement": "O2 evolution V(O2) (Vmax(O2)*100%)", "setting": "solv. methanol, t 25 min", "result": 2, "unit": "%"}, {"measurement": "O2 evolution V(O2) (Vmax(O2)*100%)", "setting": "solv. methanol, t 30 min", "result": 2, "unit": "%"}, {"measurement": "O2 evolution V(O2) (Vmax(O2)*100%)", "setting": "solv. methanol, t 35 min", "result": 2, "unit": "%"}, {"measurement": "O2 evolution V(O2) (Vmax(O2)*100%)", "setting": "solv. methanol, t 50 min", "result": 2, "unit": "%"}, {"measurement": "O2 evolution V(O2) (Vmax(O2)*100%)", "setting": "solv. methanol, t 60 min", "result": 2, "unit": "%"}, {"measurement": "O2 evolution V(O2) (Vmax(O2)*100%)", "setting": "solv. methanol, t 70 min", "result": 2, "unit": "%"}, {"measurement": "O2 evolution V(O2) (Vmax(O2)*100%)", "setting": "solv. methanol, t 80 min", "result": 2, "unit": "%"}, {"measurement": "O2 evolution V(O2) (Vmax(O2)*100%)", "setting": "solv. t-butanol, t 1 min", "result": 0, "unit": "%"}, {"measurement": "O2 evolution V(O2) (Vmax(O2)*100%)", "setting": "solv. t-butanol, t 4 min", "result": 0, "unit": "%"}, {"measurement": "O2 evolution V(O2) (Vmax(O2)*100%)", "setting": "solv. t-butanol, t 5 min", "result": 0, "unit": "%"}, {"measurement": "O2 evolution V(O2) (Vmax(O2)*100%)", "setting": "solv. t-butanol, t 10 min", "result": 0, "unit": "%"}, {"measurement": "O2 evolution V(O2) (Vmax(O2)*100%)", "setting": "solv. t-butanol, t 15 min", "result": 0, "unit": "%"}, {"measurement": "O2 evolution V(O2) (Vmax(O2)*100%)", "setting": "solv. t-butanol, t 20 min", "result": 0, "unit": "%"}, {"measurement": "O2 evolution V(O2) (Vmax(O2)*100%)", "setting": "solv. t-butanol, t 25 min", "result": 0, "unit": "%"}, {"measurement": "O2 evolution V(O2) (Vmax(O2)*100%)", "setting": "solv. t-butanol, t 30 min", "result": 0, "unit": "%"}, {"measurement": "O2 evolution V(O2) (Vmax(O2)*100%)", "setting": "solv. t-butanol, t 35 min", "result": 0, "unit": "%"}, {"measurement": "O2 evolution V(O2) (Vmax(O2)*100%)", "setting": "solv. t-butanol, t 50 min", "result": 0, "unit": "%"}, {"measurement": "O2 evolution V(O2) (Vmax(O2)*100%)", "setting": "solv. t-butanol, t 60 min", "result": 0, "unit": "%"}, {"measurement": "O2 evolution V(O2) (Vmax(O2)*100%)", "setting": "solv. t-butanol, t 70 min", "result": 0, "unit": "%"}, {"measurement": "O2 evolution V(O2) (Vmax(O2)*100%)", "setting": "solv. t-butanol, t 80 min", "result": 0, "unit": "%"}]}]}
